Source: ChEMBL document CHEMBL1201862, “PubChem BioAssay data set” (2004)
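Where inhibition never reached the appropriate level, the endpoint shown equals the highest concentration tested. Otherwise, values were interpolated linearly from a five-concentration, 48-hour dose response in 96-well plates. GI50 marks 50% less growth.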 Activity calls are given as the source filed them. Cut-off read from the data, not from the text of the source: active = GI50 up to about 1.1 µM and inactive = higher.

Assays:
Assay in all cases: DTP human tumour cell line panel, 48 h
HL-60 = test system: HL-60
OVCAR-4 = test system: OVCAR-4
SK-MEL-28 = test system: SK-MEL-28
COLO 205 = test system: COLO 205
NCI-H226 = test system: NCI-H226
SF-295 = test system: SF-295
HCT-116 = test system: HCT-116
DMS-114 = test system: DMS-114
SW-620 = test system: SW-620
EKVX = test system: EKVX
SK-MEL-2 = test system: SK-MEL-2
OVCAR-5 = test system: OVCAR-5
SF-268 = test system: SF-268
NCI-H460 = test system: NCI-H460
SK-OV-3 = test system: SK-OV-3
NCI-H522 = test system: NCI-H522
HOP-62 = test system: HOP-62
LOX IMVI = test system: LOX IMVI
UACC-62 = test system: UACC-62
K562 = test system: K562

SMILES	GI50 (HL-60)	GI50 (OVCAR-4)	GI50 (SK-MEL-28)	GI50 (COLO 205)	GI50 (NCI-H226)	GI50 (SF-295)	GI50 (HCT-116)	GI50 (DMS-114)	GI50 (SW-620)	GI50 (EKVX)	GI50 (SK-MEL-2)	GI50 (OVCAR-5)	GI50 (SF-268)	GI50 (NCI-H460)	GI50 (SK-OV-3)	GI50 (NCI-H522)	GI50 (HOP-62)	GI50 (LOX IMVI)	GI50 (UACC-62)	GI50 (K562)
CN(C)CCNC(=O)c1cccc2[nH]c(-c3ccccn3)nc12	33.7 µM (inactive)	27.5 µM (inactive)	36.6 µM (inactive)	14 µM (inactive)	18.5 µM (inactive)	31 µM (inactive)	19.4 µM (inactive)	27 µM (inactive)	24.9 µM (inactive)	41.4 µM (inactive)	39.7 µM (inactive)	38.2 µM (inactive)	28 µM (inactive)	20.8 µM (inactive)	32.6 µM (inactive)	25.6 µM (inactive)	35.3 µM (inactive)	32.5 µM (inactive)	20.2 µM (inactive)	> 55.6 µM (inactive)
CCOC(=O)C(C#N)(Cc1c[nH]c2ccccc12)NC(C)=O (stereo not given)	> 100 µM (inactive)	> 100 µM (inactive)	> 100 µM (inactive)	> 100 µM (inactive)	> 100 µM (inactive)	> 100 µM (inactive)	> 100 µM (inactive)	> 100 µM (inactive)	> 100 µM (inactive)	> 100 µM (inactive)	> 100 µM (inactive)	> 100 µM (inactive)	> 100 µM (inactive)	> 100 µM (inactive)	> 100 µM (inactive)	> 100 µM (inactive)	> 100 µM (inactive)	> 100 µM (inactive)	> 100 µM (inactive)	> 100 µM (inactive)
CCC(C)C1NC(=O)CNC(=O)C2Cc3c([nH]c4cc(O)ccc34)[S+]([O-])CC(NC(=O)CNC1=O)C(=O)NC(CC(=O)O)C(=O)N1CC(O)CC1C(=O)NC(C(C)C(O)CO)C(=O)N2 (stereo not given)	28.6 µM (inactive)	2.07 µM (inactive)	2.54 µM (inactive)	1.41 µM (inactive)	1.6 µM (inactive)	1.51 µM (inactive)	6.37 µM (inactive)	0.759 µM (active)	36.2 µM (inactive)	1.98 µM (inactive)	2.08 µM (inactive)	16.1 µM (inactive)	1.64 µM (inactive)	2.11 µM (inactive)	13.2 µM (inactive)	0.776 µM (active)	0.662 µM (active)	2.38 µM (inactive)	2.35 µM (inactive)	3.93 µM (inactive)
